Tests used:
[1] = tested on: sphingosine kinase 2 (SK2); assay: Sphingosine kinase 2 (SK2) substrate assay with lysate of transfected HEK293E cells, HPLC detection; format: biochemical, canine, mouse, or human; settings: 20 μM test compound, 37° C., 70 minutes, HPLC with and without added SPHK2 (FIG. 7)
Method: To assay a test compound for its properties as a substrate of sphingosine kinase 2 (SK2), an assay using recombinantly expressed SK2 was used. Briefly, HEK293E cells were transiently transfected with plasmids containing DNA encoding a sphingosine kinase 2 (SK2) (canine, mouse, or human). […]
The SK2 kinase assay was performed in a 200 μL reaction mixture containing 20 μm sphingosine (control) or 20 μM test compound (prepared as a 200 μM stock solution containing 0.1% fatty acid-free bovine serum albumin (BSA)), 38 μL lysate, and 2 μM ATP (freshly prepared). Kinase reactions were incubated at 37° C. for 70 minutes followed by detection of phosphorylated compound (control or test compound) using UV absorbance at 282 nm. […] The supernatant was analyzed on HPLC using a C18 column (FIG. 7). The parent and phosphorylated test compound were quantitated using area under the curve (AUC) calculation. […]

human S1P1 = molecular target: T1, human S1P1 (Homo sapiens, UniProt P21453); assay: Calcium mobilization assay, agonist activity at human S1P1; format: cell-based; settings: recombinant CHEM cells expressing human S1P1, FLIPR Calcium 4 dye (FIG. 8, FIG. 11)
T1 construct: host or cells: recombinant CHEM cells
Method: (§1) Compounds that were not specific for the S1P, receptor, can have activity for other S1P receptor subtypes, e.g., S1P2, S1P3, S1P4, or S1P5, and can cause undesirable side effects. Accordingly, compounds were tested to identify those that were specific for S1P1 activity and had little or no activity, or are antagonists of, S1P3 activity. Accordingly, the test compounds were tested in a calcium mobilization assay to determine agonist activity at either the human S1P1 or human S1P3 receptor, and antagonist activity only at the human S1P3 receptor. The procedure was essentially as described (with modifications described below) in Davis et al. (2005) Journal of Biological Chemistry, vol. 280, pp. 9833-9841, which is incorporated by reference in its entirety. Calcium mobilization assays were performed in recombinant CHEM cells expressing human S1P1 or S1P3 purchased from Millipore (Billerica, Mass.). To detect free intracellular calcium, S1P1 or S1P3 cells were loaded with FLIPR Calcium 4 dye from Molecular Devices (Sunnyvale, Calif.). Cells were imagined for calcium mobilization using a FLIPR^TETRA equipped with a 96-well dispense head.

human S1P3 receptor [2] = molecular target: T2, human S1P3 receptor (Homo sapiens, UniProt Q99500); assay: Calcium mobilization assay, agonist activity at human S1P3; format: cell-based; settings: recombinant CHEM cells expressing human S1P3, FLIPR Calcium 4 dye (FIG. 9, FIG. 11)
T2 construct: host or cells: recombinant CHEM cells
Method: as §1

human S1P3 receptor [3] = molecular target: T2, human S1P3 receptor; assay: Calcium mobilization assay, antagonist activity at human S1P3; format: cell-based; settings: recombinant CHEM cells expressing human S1P3, FLIPR Calcium 4 dye (FIG. 10, FIG. 11)
Method: as §1

T2 sequence (Q99500 whole entry): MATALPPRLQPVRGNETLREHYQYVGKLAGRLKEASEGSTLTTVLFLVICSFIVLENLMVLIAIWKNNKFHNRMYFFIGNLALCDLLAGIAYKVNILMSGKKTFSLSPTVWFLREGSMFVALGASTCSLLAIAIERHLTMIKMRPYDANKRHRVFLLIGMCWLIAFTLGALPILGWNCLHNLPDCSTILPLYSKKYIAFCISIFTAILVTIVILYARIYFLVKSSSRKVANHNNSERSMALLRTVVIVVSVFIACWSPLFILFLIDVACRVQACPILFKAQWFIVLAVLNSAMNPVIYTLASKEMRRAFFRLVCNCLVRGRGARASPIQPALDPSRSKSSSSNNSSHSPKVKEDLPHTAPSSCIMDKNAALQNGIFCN
T1 sequence (P21453 whole entry): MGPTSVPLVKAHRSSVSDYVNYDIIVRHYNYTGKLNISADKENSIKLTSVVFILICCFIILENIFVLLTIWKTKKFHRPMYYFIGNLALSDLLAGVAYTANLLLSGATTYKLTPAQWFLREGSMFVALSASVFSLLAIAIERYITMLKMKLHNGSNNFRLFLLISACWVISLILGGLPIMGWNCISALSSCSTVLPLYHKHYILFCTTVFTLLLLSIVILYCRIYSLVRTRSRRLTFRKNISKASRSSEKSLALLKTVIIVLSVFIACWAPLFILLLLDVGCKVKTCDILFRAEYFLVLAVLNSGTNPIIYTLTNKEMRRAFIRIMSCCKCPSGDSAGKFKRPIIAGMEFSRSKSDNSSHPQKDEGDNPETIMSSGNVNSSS

With `CCCC[C@H]1CC[C@@H](Oc2ccc3cc([C@@](C)(N)COP(=O)(O)O)ccc3c2C(F)(F)F)CC1` (relative stereo) [Example 21, (R)-2-amino-2-(6-(cis-4-butylcyclohexyloxy)-5-(trifluoromethyl)naphthalen-2-yl)propan-1-phosphoric acid] the “phosphorylation of test compound by SPHK2” value [1] was “the compound is phosphorylated under these conditions”, the S1P1 agonist activity (human S1P1) was “agonists of the S1P, receptor, with potencies similar to S1P” and the S1P3 agonist activity (human S1P3 receptor [2]) was “weak micromolar partial S1P3 agonist activity”. For the same compound, the S1P3 antagonist activity (human S1P3 receptor [3]) was “do not antagonize the S1P3 receptor”.

Source: patent US8269043B2, “Bicyclic aryl sphingosine 1-phosphate analogs” (Biogen Idec MA Inc., priority 2008, dated 2012)
